The test system of the series is CCRIS mutagenicity, Ames/micronucleus/aberration tests. The series is described as follows: CCRIS mutagenicity studies. The note with it: Test System: AMES SALMONELLA TYPHIMURIUM
Where [1] appears, read: Strain/Indicator: TA98, Metabolic Activation: NONE, Method: PREINCUBATION
Where [2] appears, read: Strain/Indicator: TA100, Metabolic Activation: NONE, Method: PREINCUBATION
Setting [3] is: Strain/Indicator: TA1535, Metabolic Activation: NONE, Method: PREINCUBATION
[4] abbreviates: Strain/Indicator: TA1537, Metabolic Activation: NONE, Method: PREINCUBATION

Structures are written as SMILES. Activity calls are given as the source filed them. How the calls were made is not given here.

As for `O=C(Cl)c1ccccc1F`, the mutagenic call by setting is: (Strain/Indicator: TA98, Metabolic Activation: HAMSTER, LIVER, S-9, AROCLOR 1254, Method: PREINCUBATION) “active; positive”; under setting [1], “inactive; negative”; (Strain/Indicator: TA98, Metabolic Activation: RAT, LIVER, S-9, AROCLOR 1254, Method: PREINCUBATION) “active; positive”; (Strain/Indicator: TA100, Metabolic Activation: HAMSTER, LIVER, S-9, AROCLOR 1254, Method: PREINCUBATION) “active; positive”; under setting [2], “inactive; negative”; (Strain/Indicator: TA100, Metabolic Activation: RAT, LIVER, S-9, AROCLOR 1254, Method: PREINCUBATION) “active; positive”. Besides, the mutagenic call runs as follows: (Strain/Indicator: TA1535, Metabolic Activation: HAMSTER, LIVER, S-9, AROCLOR 1254, Method: PREINCUBATION) “inactive; negative”; under setting [3], “inactive; negative”; (Strain/Indicator: TA1535, Metabolic Activation: RAT, LIVER, S-9, AROCLOR 1254, Method: PREINCUBATION) “inactive; negative”; (Strain/Indicator: TA1537, Metabolic Activation: HAMSTER, LIVER, S-9, AROCLOR 1254, Method: PREINCUBATION) “inactive; negative”; under setting [4], “inactive; negative”; (Strain/Indicator: TA1537, Metabolic Activation: RAT, LIVER, S-9, AROCLOR 1254, Method: PREINCUBATION) “inactive; negative”.
Turning to `O=C(CCl)c1ccccc1`, the mutagenic call was “inactive; negative” (Strain/Indicator: TA98, Metabolic Activation: HAMSTER, LIVER, S-9, AROCLOR 1254 (10%), Method: PREINCUBATION); “inactive; negative” (Strain/Indicator: TA98, Metabolic Activation: NONE); “inactive; negative” under setting [1]; “inactive; negative” (Strain/Indicator: TA98, Metabolic Activation: RAT, LIVER, S-9, AROCLOR 1254 (10%), Method: PREINCUBATION); “inactive; negative” (Strain/Indicator: TA98, Metabolic Activation: RAT, LIVER, S-9, PHENOBARBITONE AND BETA-NAPHTHOFLAVONE); “inactive; negative” (Strain/Indicator: TA100, Metabolic Activation: HAMSTER, LIVER, S-9, AROCLOR 1254 (10%), Method: PREINCUBATION). Besides, the mutagenic call is “inactive; negative” (Strain/Indicator: TA100, Metabolic Activation: NONE); “inactive; negative” under setting [2]; “inactive; negative” (Strain/Indicator: TA100, Metabolic Activation: RAT, LIVER, S-9, AROCLOR 1254 (10%), Method: PREINCUBATION); “inactive; negative” (Strain/Indicator: TA100, Metabolic Activation: RAT, LIVER, S-9, PHENOBARBITONE AND BETA-NAPHTHOFLAVONE); “inactive; negative” (Strain/Indicator: TA1535, Metabolic Activation: HAMSTER, LIVER, S-9, AROCLOR 1254 (10%), Method: PREINCUBATION); “inactive; negative” under setting [3]. Further, the mutagenic call was “inactive; negative” (Strain/Indicator: TA1535, Metabolic Activation: RAT, LIVER, S-9, AROCLOR 1254 (10%), Method: PREINCUBATION); “inactive; negative” (Strain/Indicator: TA1537, Metabolic Activation: HAMSTER, LIVER, S-9, AROCLOR 1254 (10%), Method: PREINCUBATION); “inactive; negative” under setting [4]; “inactive; negative” (Strain/Indicator: TA1537, Metabolic Activation: RAT, LIVER, S-9, AROCLOR 1254 (10%), Method: PREINCUBATION); “inactive; negative” (Strain/Indicator: TA1538, Metabolic Activation: NONE); “inactive; negative” (Strain/Indicator: TA1538, Metabolic Activation: RAT, LIVER, S-9, PHENOBARBITONE AND BETA-NAPHTHOFLAVONE).
`O=[N+]([O-])c1c2ccccc2c([N+](=O)[O-])c2ccccc12`: the mutagenic call (Strain/Indicator: TA98, Metabolic Activation: NONE, Method: STANDARD PLATE) was “inactive; negative”.
For `CC12OOC1(C)c1ccccc1O2` (stereo not drawn), the mutagenic call is, setting by setting: under setting [2], “active; positive”; (Strain/Indicator: TA2638, Metabolic Activation: NONE, Method: PREINCUBATION) “inactive; negative”.

The record behind these values is PubChem BioAssay AID1259407 (Chemical Carcinogenesis Research Information System (CCRIS), 2018).
